Measurements as given in PMC4272579 (The Journal of steroid biochemistry and molecular biology, 2014).
“Also recorded” adds a separate entry of the source.

What was measured:
CYP17A1 = CYP17A1 inhibitor; statement in introduction, no reference given; cited from earlier work
[1] = biological target: purified and modified human CYP17A1 (Homo sapiens, UniProt P05093); assay: Spectral assay for ligand binding; conditions: for type of difference spectrum induced: UV-visible difference spectroscopy; for Kd: read-out: Ks (spectral binding constant), 200 nM CYP17A1, 0.1 M potassium phosphate pH 7.4, 20% glycerol, room temperature, means ± SE of 2-4 experiments
[2] = biological target: T1, native human CYP17A1 enzyme in yeast microsomes (Homo sapiens, UniProt P05093); assay: CYP17A1 hydroxylase activity assay; assay type: biochemical; conditions: for mode of inhibition: Lineweaver-Burk and Cornish-Bowden plots, progesterone hydroxylation
T1 sequence (P05093 1-508): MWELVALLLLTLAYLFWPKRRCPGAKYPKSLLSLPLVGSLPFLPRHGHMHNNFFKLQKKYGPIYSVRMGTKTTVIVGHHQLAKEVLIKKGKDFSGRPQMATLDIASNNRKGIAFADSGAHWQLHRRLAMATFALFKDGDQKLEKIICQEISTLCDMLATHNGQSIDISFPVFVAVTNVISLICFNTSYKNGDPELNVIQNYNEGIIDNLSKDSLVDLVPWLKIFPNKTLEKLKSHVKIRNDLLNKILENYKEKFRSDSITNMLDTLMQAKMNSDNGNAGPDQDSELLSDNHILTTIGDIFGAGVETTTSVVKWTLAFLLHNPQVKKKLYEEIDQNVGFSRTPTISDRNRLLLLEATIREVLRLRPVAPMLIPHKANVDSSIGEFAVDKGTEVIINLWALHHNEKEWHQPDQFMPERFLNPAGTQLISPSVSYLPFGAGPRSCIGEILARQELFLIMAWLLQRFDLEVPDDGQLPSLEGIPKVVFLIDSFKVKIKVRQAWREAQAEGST

mode of inhibition ([2]; listed as Abi) | SMILES | potency relative to ketoconazole (CYP17A1) | type of difference spectrum induced [1] | Kd [1] [nM] | Ki [2] [nM] | mode of inhibition [2] | Type of inhibition ([2]; progesterone as substrate)
mixed-type inhibitors | C[C@]12CC[C@H](O)CC1=CC[C@@H]1[C@@H]2CC[C@]2(C)C(c3cccnc3)=CC[C@@H]12 [Abiraterone, abiraterone, reference compound] | about 20 times | type II difference spectrum | 2.6 ± 3.2 | 27 |  | 
 | C[C@]12CC[C@@H](O)C[C@@H]1CC[C@@H]1[C@@H]2CC[C@]2(C)C(c3cccnc3)=CC[C@@H]12 [Compound 5, 17-(3-pyridyl)-5α-androsta-16-ene-3α-ol] |  | type II difference spectrum |  | 14 | mixed-type inhibitors; also recorded: mixed competitive-noncompetitive inhibition | 
 | C[C@]12CCC(=O)C[C@@H]1CC[C@@H]1[C@@H]2CC[C@]2(C)C(c3cccnc3)=CC[C@@H]12 [Compound 6, 17-(3-pyridyl)-5α-androsta-16-ene-3-one] |  | type II difference spectrum |  | 7 | mixed-type inhibitors; also recorded: mixed competitive-noncompetitive inhibition | 
 | C[C@]12CCC(=O)C=C1CC[C@@H]1[C@@H]2CC[C@]2(C)C(c3cccnc3)=CC[C@@H]12 [Compound 11, 17-(3-pyridyl)androsta-4,16-dien-3-one] |  | type II difference spectrum |  | 22 | mixed-type inhibitors; also recorded: mixed competitive-noncompetitive inhibition | 
 | C[C@]12CC[C@@H](O)C=C1CC[C@@H]1[C@@H]2CC[C@]2(C)C(c3cccnc3)=CC[C@@H]12 [Compound 13, 17-(3-pyridyl)androsta-4,16-dien-3α-ol] |  | type II difference spectrum | 1660 ± 286 | 80 | primarily non-competitive inhibition; also recorded: non-competitive inhibitor; also recorded: primarily noncompetitive; also recorded: largely noncompetitive mode of inhibition | N
